How the values were obtained:
HepG2.2.15 cells = test: Cytotoxicity determination in HepG2.2.15 cells (CCK-8); format: cell-based; conditions: HepG2.2.15 cells, 5,000 cells/well, 6 days of compound treatment, CCK-8 absorbance 450 nm, highest concentration 100 uM
Method: (§1) • HepG2.2.15 (the HepG2.2.15 cell line can be produced by transfection of the HepG2 cell line as described in Sells, Chen, and Acs 1987 (Proc. Natl. Acad. Sci. USA 84: 1005-1009), and the HepG2 cell line is available from ATCC® under number HB-8065™)
(§2) Seed the cell HepG2.2.15 cells into 96-well plate in 2% FBS culture medium at the density of 40,000 cells/well and 5,000 cells/well for HBV inhibitory activity and cytotoxicity determination, respectively. After seeding, incubate the cell plates at 37° C., 5% CO2 overnight. The next day, medium containing compounds is added to the cell to treat the cells for 6 days with medium refreshed once in the middle of the treatment. 8 dose points with 3 folds dilution of each compound were adopted and the highest concentration of the compounds is 10 uM and 100 uM for HBV inhibitory activity and cytotoxicity determination, respectively.
After 6 days of compounds treatment, add 20 μl CCK-8 reagents to each well of cytotoxicity assay plates, incubate the plate at 37° C., 5% CO2 for 2.5 h and measure the absorbance at 450 nm wavelength, at the same time read the absorbance at 630 nm wavelength as reference.
(§3) EC50 and CC50 values are calculated by the GRAPHPAD PRISM software.

HBV = HBV inhibitory activity in HepG2.2.15 cells (HBV DNA in culture medium by q-PCR); format: cell-based; conditions: HepG2.2.15 cells, 40,000 cells/well, 6 days of compound treatment, HBV DNA in culture medium by q-PCR, highest concentration 10 uM; read-out: EC50
Method: as §1, §2
The HBV DAN change in the cell culture medium induced by the compounds is measured by q-PCR method. Briefly, the HBV DNA in the culture medium is extracted using QIAamp 96 DNA Blood Kit according to the manual and then quantified by q-PCR using the primers and probe in the table below.
as §3

Structure (SMILES)	CC50 (HepG2.2.15 cells) [µM]	EC50 (HBV) [µM]
CCOC(=O)C1=C(C2CCc3nn(CCC(=O)O)cc3C2)NC(c2nccs2)=NC1c1ccc(F)cc1Cl (single isomer, unassigned) [Compound 37c, 3-(5-(6-(2-Chloro-4-fluorophenyl)-5-(ethoxycarbonyl)-2-(thiazol-2-yl)-3,6-dihydropyrimidin-4-yl)-4,5,6,7-tetrahydro-2H-indazol-2-yl)propanoic acid]	21.1	0.0222
CCOC(=O)C1=C(C2CCc3nn(CCC(=O)O)cc3C2)NC(c2nccs2)=NC1c1ccc(F)c(F)c1Br (single isomer, unassigned) [Compound 36b, 3-(5-(6-(2-Bromo-3,4-difluorophenyl)-5-(ethoxycarbonyl)-2-(thiazol-2-yl)-3,6-dihydropyrimidin-4-yl)-4,5,6,7-tetrahydro-2H-indazol-2-yl)propanoic acid]	11.7	0.0965
CCOC(=O)C1=C(C2CCc3nn(CCC(=O)O)cc3C2)NC(c2ncc(F)cc2F)=NC1c1ccc(F)c(F)c1Cl (single isomer, unassigned) [Compound 43c, 3-(5-(6-(2-Chloro-3,4-difluorophenyl)-2-(3,5-difluoropyridin-2-yl)-5-(ethoxycarbonyl)-3,6-dihydropyrimidin-4-yl)-4,5,6,7-tetrahydro-2H-indazol-2-yl)propanoic acid]	29.9	0.0059
COC(=O)C1=C(C2CCc3nn(CCC(=O)O)cc3C2)NC(c2nccs2)=NC1c1ccc(F)cc1Cl (single isomer, unassigned) [Compound 47b, 3-(5-(6-(2-Chloro-4-fluorophenyl)-5-(methoxycarbonyl)-2-(thiazol-2-yl)-3,6-dihydropyrimidin-4-yl)-4,5,6,7-tetrahydro-2H-indazol-2-yl)propanoic acid]	37.7	0.47
COC(=O)C1=C(C2CCc3nn(CCC(=O)O)cc3C2)NC(c2nccs2)=NC1c1cccc(F)c1Br (single isomer, unassigned) [Compound 45c, 3-(5-(6-(2-Bromo-3-fluorophenyl)-5-(methoxycarbonyl)-2-(thiazol-2-yl)-3,6-dihydropyrimidin-4-yl)-4,5,6,7-tetrahydro-2H-indazol-2-yl)propanoic acid]	32.2	0.0473
COC(=O)C1=C(C2CCc3nn(CCCC(=O)O)cc3C2)NC(c2nccs2)=NC1c1ccc(F)c(F)c1Cl (single isomer, unassigned) [Compound 74c, 4-(5-(6-(2-chloro-3,4-difluorophenyl)-5-(methoxycarbonyl)-2-(thiazol-2-yl)-3,6-dihydropyrimidin-4-yl)-4,5,6,7-tetrahydro-2H-indazol-2-yl)butanoic acid]	18.2	0.0091
COC(=O)C1=C(C2CCc3nn(CCC(=O)O)cc3C2)NC(c2nccs2)=NC1c1ccc(F)c(F)c1Cl (single isomer, unassigned) [Compound 70d, 3-(-5-(6-(2-chloro-3,4-difluorophenyl)-5-(methoxycarbonyl)-2-(thiazol-2-yl)-3,6-dihydropyrimidin-4-yl)-4,5,6,7-tetrahydro-2H-indazol-2-yl)propanoic acid]	24.3	0.00803
CCOC(=O)C1=C(C2CCc3nn(CCC(=O)O)cc3C2)NC(c2nccs2)=NC1c1ccc(F)cc1Cl (single isomer, unassigned) [Compound 37d, 3-(5-(6-(2-Chloro-4-fluorophenyl)-5-(ethoxycarbonyl)-2-(thiazol-2-yl)-3,6-dihydropyrimidin-4-yl)-4,5,6,7-tetrahydro-2H-indazol-2-yl)propanoic acid]	18.9	0.88
CCOC(=O)C1=C(C2CCc3nn(CCCC(=O)O)cc3C2)NC(c2nccs2)=NC1c1ccc(F)c(F)c1Cl (single isomer, unassigned) [Compound 50c, 4-(5-(6-(2-Chloro-3,4-difluorophenyl)-5-(ethoxycarbonyl)-2-(thiazol-2-yl)-3,6-dihydropyrimidin-4-yl)-4,5,6,7-tetrahydro-2H-indazol-2-yl)butanoic acid]	11.9	< 0.0046
COC(=O)C1=C(C2CCc3nn(CCC(=O)O)cc3C2)NC(c2nccs2)=NC1c1ccc(F)cc1Cl (single isomer, unassigned) [Compound 47c, 3-(5-(6-(2-Chloro-4-fluorophenyl)-5-(methoxycarbonyl)-2-(thiazol-2-yl)-3,6-dihydropyrimidin-4-yl)-4,5,6,7-tetrahydro-2H-indazol-2-yl)propanoic acid]	> 100	0.147
CCOC(=O)C1=C(C2CCc3cn(CCC(=O)O)nc3C2)NC(c2nccs2)=NC1c1ccc(F)c(F)c1Cl (single isomer, unassigned) [Compound 61a, 3-(6-(6-(2-Chloro-3,4-difluorophenyl)-5-(ethoxycarbonyl)-2-(thiazol-2-yl)-3,6-dihydropyrimidin-4-yl)-4,5,6,7-tetrahydro-2H-indazol-2-yl)propanoic acid]	4.8	0.0612
CCOC(=O)C1=C(C2CCc3nn(CCC(=O)O)cc3C2)NC(c2nccs2)=NC1c1ccc(F)cc1Br (single isomer, unassigned) [Compound 39c, 3-(5-(6-(2-Bromo-4-fluorophenyl)-5-(ethoxycarbonyl)-2-(thiazol-2-yl)-3,6-dihydropyrimidin-4-yl)-4,5,6,7-tetrahydro-2H-indazol-2-yl)propanoic acid]	11.9	0.0145
CCOC(=O)C1=C(C2CCc3nn(C(C)CC(=O)O)cc3C2)NC(c2nccs2)=NC1c1ccc(F)c(F)c1Cl (single isomer, unassigned) [Compound 52d, 3-(5-(6-(2-chloro-3,4-difluorophenyl)-5-(ethoxycarbonyl)-2-(thiazol-2-yl)-3,6-dihydropyrimidin-4-yl)-4,5,6,7-tetrahydro-2H-indazol-2-yl)butanoic acid]	10.5	0.0124
CCOC(=O)C1=C(C2CCc3nc(CCC(=O)O)oc3C2)NC(c2nccs2)=NC1c1ccc(F)c(F)c1Cl (single isomer, unassigned) [Compound 58d, 3-(6-(6-(2-Chloro-3,4-difluorophenyl)-5-(ethoxycarbonyl)-2-(thiazol-2-yl)-3,6-dihydropyrimidin-4-yl)-4,5,6,7-tetrahydrobenzo[d]oxazol-2-yl)propanoic acid]	10.8	0.0092
COC(=O)C1=C(C2CCc3nn(CCC(=O)O)cc3C2)NC(c2nccs2)=NC1c1ccc(F)cc1Br (single isomer, unassigned) [Compound 48d, 3-(5-(6-(2-Bromo-4-fluorophenyl)-5-(methoxycarbonyl)-2-(thiazol-2-yl)-3,6-dihydropyrimidin-4-yl)-4,5,6,7-tetrahydro-2H-indazol-2-yl)propanoic acid]	34.3	0.03
CCOC(=O)C1=C(C2CCc3nn(CCC(=O)O)cc3C2)NC(c2nccs2)=NC1c1cccc(F)c1Br (single isomer, unassigned) [Compound 42d, 3-(5-(6-(2-bromo-3-fluorophenyl)-5-(ethoxycarbonyl)-2-(thiazol-2-yl)-3,6-dihydropyrimidin-4-yl)-4,5,6,7-tetrahydro-2H-indazol-2-yl)propanoic acid]	12.7	0.0242
CCOC(=O)C1=C(C2CCc3oc(CCC(=O)O)nc3C2)NC(c2nccs2)=NC1c1ccc(F)c(F)c1Cl (single isomer, unassigned) [Compound 57f, 3-(5-(6-(2-Chloro-3,4-difluorophenyl)-5-(ethoxycarbonyl)-2-(thiazol-2-yl)-3,6-dihydropyrimidin-4-yl)-4,5,6,7-tetrahydrobenzo[d]oxazol-2-yl)propanoic acid]	12.6	0.0908
CCOC(=O)C1=C(C2CCc3nn(CC(C)(C)C(=O)O)cc3C2)NC(c2nccs2)=NC1c1ccc(F)c(F)c1Cl (single isomer, unassigned) [Compound 53c, 3-(5-(6-(2-Chloro-3,4-difluorophenyl)-5-(ethoxycarbonyl)-2-(thiazol-2-yl)-3,6-dihydropyrimidin-4-yl)-4,5,6,7-tetrahydro-2H-indazol-2-yl)-2,2-dimethylpropanoic acid]	10.9	< 0.0046
CCOC(=O)C1=C(C2CCc3nn(CCC(=O)O)cc3C2)NC(c2nccs2)=NC1c1ccc(F)c(F)c1C (single isomer, unassigned) [Compound 35c, 3-(5-(6-(3,4-Difluoro-2-methylphenyl)-5-(ethoxycarbonyl)-2-(thiazol-2-yl)-3,6-dihydropyrimidin-4-yl)-4,5,6,7-tetrahydro-2H-indazol-2-yl)propanoic acid]	14.4	< 0.0046
COC(=O)C1=C(C2CCc3nc([C@H]4C[C@H](C(=O)O)C4)oc3C2)NC(c2nccs2)=NC1c1ccc(F)c(F)c1Cl (single isomer, unassigned) [Compound 72c, (trans)-3-(6-(6-(2-Chloro-3,4-difluorophenyl)-5-(methoxycarbonyl)-2-(thiazol-2-yl)-3,6-dihydropyrimidin-4-yl)-4,5,6,7-tetrahydrobenzo[d]oxazol-2-yl)cyclobutanecarboxylic acid]	8.7	0.0902
